Data published in patent publication US11279733B2, “Peptide antibiotics” (priority 2017, dated 2022).
Converted amounts (≈) assume the structure as drawn. Like-named read-outs stand apart in the source and are kept apart here. Positions of bridges follow the written chain, without caps; N, C: chain ends. Non-standard residues stand in square brackets, D forms with d. Residues, ends and D or L forms follow the SMILES beside them. ξ: configuration not given here. *: point of attachment. Decanoyl(3R-OH) = CCCCCCC[C@@H](O)CC(=O)*; Decanoyl(3ξ-OH) = CCCCCCCC(O)CC(=O)*; Lauroyl = CCCCCCCCCCCC(=O)*; dDab = NCC[C@@H](N)C(=O)O; Orn = NCCC[C@H](N)C(=O)O; dDap = NC[C@@H](N)C(=O)O; Dab = NCC[C@H](N)C(=O)O; Dap = NC[C@H](N)C(=O)O

Legend:
E. coli ATCC 25922 = settings: ATCC 25922
Summary of the method: (§1)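 Mid-log cultures grown in Mueller Hinton broth at 37° C were tested by 2-fold broth microdilution at 5×10^5 CFU/mL final. Compounds were dissolved in water and tested over a final range of 32 to 0.015 μg/mL.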

A. baumannii GN_093 PmxR = settings: GN 093 PmxR
Summary of the method: as §1

[1] = system: K. pneumoniae ATCC 700603, MDR; settings: ATCC 700603
Summary of the method: as §1

[2] = system: P. aeruginosa GN_043, PmxR; settings: for MIC, P. aeruginosa FADDI-PA070, PmxR: Table 5
Summary of the method: as §1

K. pneumoniae ATCC 13883 = settings: ATCC 13883
Summary of the method: as §1

[3] = system: S. aureus ATCC 25923, MSSA; settings: ATCC 25923
Summary of the method: as §1

[4] = system: K. pneumoniae GN_106, PmxR; settings: GN 106, PmxR
Summary of the method: as §1

[5] = system: P. aeruginosa GN_105, PmxR; settings: GN 105, PmxR
Summary of the method: as §1

[6] = system: K. pneumoniae ATCC BAA-2146, NDM-1 pos; settings: ATCC BAA-2146
Summary of the method: as §1

A. baumannii ATCC 19606 = settings: ATCC 19606
Summary of the method: as §1

P. aeruginosa ATCC 27853 = settings: ATCC 27853
Summary of the method: as §1

[7] = system: K. pneumoniae GN_102 PmxR; settings: GN 102 PmxR
Summary of the method: as §1

in vitro = settings: human
Experimental: Cytotoxicity of the synthesised peptides was evaluated by comparison with commercially available colistin (polymyxin E), polymyxin B (Sigma chemical Co., St. Louis, Mo., U.S.A.) and synthetic octapeptin C4 by conducting lactate dehydrogenase (LDH) assay. CC50 values calculated based on curve fitting of dose dependent inhibition of cell growth represented the cytotoxicity of the peptide. Human kidney 2 (HK2) cells were seeded as 2000 cells per well in a 384 well cell culture plate in a final volume of 20 μL in DMEM/F12 medium (Invitrogen #11330057), in which 10% of FBS was added. Cells were incubated for 24 hours at 37° C., 5% CO2 to allow cells to attach to the plates. Similar conditions were employed for HEK293 and HepG2 cytotoxicity assays.
Cytotoxicity to HEK293 and HepG2 cells was determined using the resazurin assay (McMillian, M. K.; Li, L.; Parker, J. B.; Patel, L.; Zhong, Z.; Gunnett, J. W.; Powers, W. J.; Johnson, M. D. An improved resazurin-based cytotoxicity assay for hepatic cells; Cell Biol. Toxicol. 2002, 18, 157-173; O'Brien, J.; Wilson, I.; Orton, T.; Pognan, F. Investigation of the Alamar Blue (resazurin) fluorescent dye for the assessment of mammalian cell cytotoxicity. Eur. J. Biochem. 2000, 267, 5421-5426). In brief, HEK293 and HepG2 cells were seeded at 4000 cells/well in black-wall, clear-bottom 384-well plates (Corning, Australia) and incubated for 24 h at 37° C., 5% CO2. Compounds were then added into each well. After 24 h incubation, 5 μM resazurin was added per well and incubated at 37° C. for 2 h. Fluorescence intensity was then read using a Polarstar Omega with excitation/emission 560/590. The data was then analyzed using GraphPad Prism 6 software. CC50 values were determined using GraphPad Prism 6 software (Inc. La Jolla, Calif.).

Row | Structure (SMILES) | MIC E. coli ATCC 25922 (E. coli ATCC 25922) [µg/mL] | MIC A. baumannii GN_093 PmxR (A. baumannii GN_093 PmxR) [µg/mL] | MIC K. pneumoniae ATCC 700603, MDR [1] [µg/mL] | MIC K. pneumoniae ATCC 13883 (K. pneumoniae ATCC 13883) [µg/mL] | MIC S. aureus ATCC 25923, MSSA [3] [µg/mL] | MIC K. pneumoniae GN_106, PmxR [4] [µg/mL] | MIC P. aeruginosa GN_105, PmxR [5] [µg/mL] | MIC K. pneumoniae ATCC BAA-2146, NDM-1 pos [6] [µg/mL] | MIC A. baumannii ATCC 19606 (A. baumannii ATCC 19606) [µg/mL] | MIC P. aeruginosa ATCC 27853 (P. aeruginosa ATCC 27853) [µg/mL] | MIC K. pneumoniae GN_102 PmxR [7] [µg/mL] | CC50 at 24 h (in vitro) [µM] | further results
1 | CCCCCCC[C@@H](O)CC(=O)N[C@H](CCN)C(=O)N[C@H]1CCNC(=O)[C@H](CC(C)C)NC(=O)[C@H](CN)NC(=O)[C@H](CCN)NC(=O)[C@H](CC(C)C)NC(=O)[C@@H](Cc2ccccc2)NC(=O)[C@H](CCN)NC1=O [compound 987, 3(R)OH-nC9CO-D-Dab-cyc[L-Dab-L-Dab-D-Phe-L-Leu-L-Dab-L-Dap-L-Leu]] ({Decanoyl(3R-OH)}-[dDab][Dab][Dab][dF]L[Dab][Dap]L; lactam 2-C) | 8 (≈ 7.76 µM) | 8 (≈ 7.76 µM) | 4 (≈ 3.88 µM) | 4 (≈ 3.88 µM) | 16 (≈ 15.5 µM) | 16 (≈ 15.5 µM) | 4 (≈ 3.88 µM) | 4 (≈ 3.88 µM) | 1 (≈ 0.971 µM) | 2 (≈ 1.94 µM) | 16 (≈ 15.5 µM) | > 300 | MIC P. aeruginosa GN_043, PmxR ([2]; polymyxin-resistant): 2 µg/mL (≈ 1.94 µM)
2 | CCCCCCC[C@@H](O)CC(=O)N[C@H](CCN)C(=O)N[C@H]1CCNC(=O)[C@H](CC(C)C)NC(=O)[C@H](CCCCN)NC(=O)[C@H](CCN)NC(=O)[C@H](CC(C)C)NC(=O)[C@@H](Cc2ccccc2)NC(=O)[C@H](CCN)NC1=O [compound 989, 3(R)OH-nC9CO-D-Dab-cyc[L-Dab-L-Dab-D-Phe-L-Leu-L-Dab-L-Lys-L-Leu]] ({Decanoyl(3R-OH)}-[dDab][Dab][Dab][dF]L[Dab]KL; lactam 2-C) | 4 (≈ 3.73 µM) | 16 (≈ 14.9 µM) | 2 (≈ 1.86 µM) | 4 (≈ 3.73 µM) | 16 (≈ 14.9 µM) | 4 (≈ 3.73 µM) | 2 (≈ 1.86 µM) | 2 (≈ 1.86 µM) | 8 (≈ 7.46 µM) | 2 (≈ 1.86 µM) | 4 (≈ 3.73 µM) | > 300 | MIC P. aeruginosa GN_043, PmxR ([2]; polymyxin-resistant): 2 µg/mL (≈ 1.86 µM)
3 | CCCCCCC[C@@H](O)CC(=O)N[C@H](CCN)C(=O)N[C@H]1CCNC(=O)[C@H](CC(C)C)NC(=O)[C@H](CCN)NC(=O)[C@H](CCN)NC(=O)[C@H](CC(C)C)NC(=O)[C@@H](Cc2ccccc2)NC(=O)[C@H](CCCN)NC1=O [compound 994, 3(R)OH-nC9CO-D-Dab-cyc[L-Dab-L-Orn-D-Phe-L-Leu-L-Dab-L-Dab-L-Leu]] ({Decanoyl(3R-OH)}-[dDab][Dab][Orn][dF]L[Dab][Dab]L; lactam 2-C) |  |  |  |  |  |  |  |  |  |  |  | > 300 | MIC, E. coli ATCC 25922 (E. coli ATCC 25922): 8 µg/mL (≈ 7.56 µM); MIC, A. baumannii Cl Ptyela 10073 4512:2, PmxR (A. baumannii GN_093 PmxR): 32 µg/mL (≈ 30.2 µM); MIC, K. pneumoniae ATCC 700603, MDR [1]: 8 µg/mL (≈ 7.56 µM); MIC, P. aeruginosa FADDI-PA070, PmxR ([2]; polymyxin-resistant): >32 µg/mL; MIC, K. pneumoniae ATCC 13883 (K. pneumoniae ATCC 13883): 4 µg/mL (≈ 3.78 µM); MIC, S. Aureus ATCC 25923, MSSA [3]: 32 µg/mL (≈ 30.2 µM); MIC, K. pneumoniae Cl 138-16347-20362, PmxR [4]: 4 µg/mL (≈ 3.78 µM); MIC, P. aeruginosa PA9704, PmxR [5]: 8 µg/mL (≈ 7.56 µM); MIC, K. pneumoniae ATCC BAA-2146, NDM-1 pos [6]: 8 µg/mL (≈ 7.56 µM); MIC, A. baumannii ATCC 19606 (A. baumannii ATCC 19606): 32 µg/mL (≈ 30.2 µM); MIC, P. aeruginosa ATCC 27853 (P. aeruginosa ATCC 27853): 2 µg/mL (≈ 1.89 µM); MIC, K. pneumoniae Cl Koprana 10065 0661:1, PmxR [7]: 4 µg/mL (≈ 3.78 µM)
4 | CCCCCCC[C@@H](O)CC(=O)N[C@H](CCN)C(=O)N[C@H]1CCNC(=O)[C@H](CC(C)C)NC(=O)[C@H](CCN)NC(=O)[C@H](CCN)NC(=O)[C@H](CC(C)C)NC(=O)[C@@H](Cc2ccccc2)NC(=O)[C@H](CCCCN)NC1=O [compound 995, 3(R)OH-nC9CO-D-Dab-cyc[L-Dab-L-Lys-D-Phe-L-Leu-L-Dab-L-Dab-L-Leu]] ({Decanoyl(3R-OH)}-[dDab][Dab]K[dF]L[Dab][Dab]L; lactam 2-C) |  |  |  |  |  |  |  |  |  |  |  | > 300 | MIC, E. coli ATCC 25922 (E. coli ATCC 25922): 8 µg/mL (≈ 7.46 µM); MIC, A. baumannii Cl Ptyela 10073 4512:2, PmxR (A. baumannii GN_093 PmxR): 32 µg/mL (≈ 29.8 µM); MIC, K. pneumoniae ATCC 700603, MDR [1]: 8 µg/mL (≈ 7.46 µM); MIC, P. aeruginosa FADDI-PA070, PmxR ([2]; polymyxin-resistant): 8 µg/mL (≈ 7.46 µM); MIC, K. pneumoniae ATCC 13883 (K. pneumoniae ATCC 13883): 8 µg/mL (≈ 7.46 µM); MIC, S. Aureus ATCC 25923, MSSA [3]: 32 µg/mL (≈ 29.8 µM); MIC, K. pneumoniae Cl 138-16347-20362, PmxR [4]: 8 µg/mL (≈ 7.46 µM); MIC, P. aeruginosa PA9704, PmxR [5]: 8 µg/mL (≈ 7.46 µM); MIC, K. pneumoniae ATCC BAA-2146, NDM-1 pos [6]: 8 µg/mL (≈ 7.46 µM); MIC, A. baumannii ATCC 19606 (A. baumannii ATCC 19606): >32 µg/mL; MIC, P. aeruginosa ATCC 27853 (P. aeruginosa ATCC 27853): 4 µg/mL (≈ 3.73 µM); MIC, K. pneumoniae Cl Koprana 10065 0661:1, PmxR [7]: 4 µg/mL (≈ 3.73 µM)
5 | CCCCCCC[C@@H](O)CC(=O)N[C@H](CCN)C(=O)N[C@H]1CCNC(=O)[C@H](CC(C)C)NC(=O)[C@H](CCN)NC(=O)[C@H](CCN)NC(=O)[C@H](CC(C)C)NC(=O)[C@H](Cc2ccccc2)NC(=O)[C@H](CCN)NC1=O [compound 5002, 3(R)OH-nC9CO-D-Dab-cyc[L-Dab-L-Dab-L-Phe-L-Leu-L-Dab-L-Dab-L-Leu]] ({Decanoyl(3R-OH)}-[dDab][Dab][Dab]FL[Dab][Dab]L; lactam 2-C) | 32 (≈ 30.6 µM) | >32 | 16 (≈ 15.3 µM) | >32 | 32 (≈ 30.6 µM) | >32 | >32 | 16 (≈ 15.3 µM) | >32 | 4 (≈ 3.83 µM) | 32 (≈ 30.6 µM) | > 300 | MIC P. aeruginosa GN_043, PmxR ([2]; P. aeruginosa GN_043, PmxR): 8 µg/mL (≈ 7.66 µM)
6 | CCCCCCCC(O)CC(=O)N[C@H](CCN)C(=O)N[C@H]1CCNC(=O)[C@H](CC(C)C)NC(=O)[C@H](CCN)NC(=O)[C@H](CCN)NC(=O)[C@H](CC(C)C)NC(=O)[C@@H](Cc2ccccc2)NC(=O)[C@H](CCN)NC1=O (stereo partly drawn) [compound 5013, 3OH-nC9CO-D-Dab-cyc[L-Dab-L-Dab-D-Phe-L-Leu-L-Dab-L-Dab-L-Leu]] ({Decanoyl(3ξ-OH)}-[dDab][Dab][Dab][dF]L[Dab][Dab]L; lactam 2-C) | 8 (≈ 7.66 µM) | 8 (≈ 7.66 µM) | 8 (≈ 7.66 µM) | 4 (≈ 3.83 µM) | 16 (≈ 15.3 µM) | 16 (≈ 15.3 µM) | 2 (≈ 1.92 µM) | 16 (≈ 15.3 µM) | 16 (≈ 15.3 µM) | 2 (≈ 1.92 µM) | 4 (≈ 3.83 µM) | > 300 | MIC P. aeruginosa GN_043, PmxR [2]: 2 µg/mL (≈ 1.92 µM)
7 | CCCCCCCCCCCC(=O)N[C@H](CN)C(=O)N[C@H]1CCNC(=O)[C@H](CC(C)C)NC(=O)[C@H](CCN)NC(=O)[C@H](CCN)NC(=O)[C@H](CC(C)C)NC(=O)[C@@H](Cc2ccccc2)NC(=O)[C@H](CCN)NC1=O [compound 9297, nC11CO-D-Dap-cyc[L-Dab-L-Dab-D-Phe-L-Leu-L-Dab-L-Dab-L-Leu]] (Lauroyl-[dDap][Dab][Dab][dF]L[Dab][Dab]L; lactam 2-C) | 2 (≈ 1.92 µM) | 8 (≈ 7.67 µM) | 4 (≈ 3.84 µM) | 4 (≈ 3.84 µM) |  | 8 (≈ 7.67 µM) | 8 (≈ 7.67 µM) | 8 (≈ 7.67 µM) | 16 (≈ 15.3 µM) | 4 (≈ 3.84 µM) | 8 (≈ 7.67 µM) | 33 | MIC P. aeruginosa GN_043, PmxR ([2]; P. aeruginosa GN_043, PmxR): 2 µg/mL (≈ 1.92 µM)
